Laboratory results: US20230212638A1 (priority 2020, published 2023)

How the values were obtained:
Type in all cases: cell-based
[1] = system: NBRC12993 (Staphylococcus epidermidis control strain); experiment: Drug sensitivity of Staphylococcus epidermidis NBRC12993 by resonance frequency shift on GHz array sensor; conditions: PIPC 10.0 μg/mL
Description: By using NBRC12993 being a control strain of Staphylococcus epidermidis, the inventors conducted verification experiments of growth and drug sensitivity of Staphylococcus epidermidis by the test method above.
In this experiment, piperacillin (penicillin) being a time-dependent drug was used. That is, this drug exerts an inhibitory action on growth by retaining the effective drug concentration for a certain period of time. A control sample of NBRC12993 was mixed with piperacillin (PIPC) to prepare a sample for drug sensitivity evaluation at a […] concentration of 10.0 μg/mL (PIPC 10.0 μg/mL). Further, in order to verify the frequency shift of a killed bacterium, a sample was prepared by subjecting 200 μL of a control sample to heat treatment at 98° C. for 30 minutes.
The samples thus prepared were introduced into different containers 60, respectively, and the frequency shift was measured for each sample. In this case, capping solvent 300 was not added into each container 60. The temperatures of an incubator and a Peltier element during the measurement were set in a similar manner to Example 1 above. In analysis processing, frequency shifts of all the 1488 elements on array sensor 10 were measured every 10 seconds, the average value of the measured frequency shifts was calculated every 5 minutes, and extracted as the frequency shift at each timing of the measurement. In addition to this, in Example 3, a region where the growth of Staphylococcus epidermidis was observed was designated on the display image, and the average value of the frequency shifts in this growth region was calculated every 5 minutes. […]
Further, FIG. 12(b) is a display image showing a frequency shift of each element by color when a control sample to which PIPC was not added was measured at the time point after the lapse of 240 minutes, and FIG. 12(c) is a display image showing a frequency shift of each element by color when a sample for drug sensitivity evaluation to which PIPC was added (PIPC 10.0 μg/mL) was measured at the time point after the lapse of 240 minutes. […]

[2] = system: BCG (Mycobacterium bovis); conditions: SM sample: 196 μL control sample + 4 μL SM at 25 mg/mL; 20 elements; 12 hours; 37° C.; FIG. 10(b)
[3] = system: NBRC3301 (Escherichia coli control strain); experiment: Drug sensitivity of Escherichia coli NBRC3301 by resonance frequency shift on GHz array sensor
Procedure: By using NBRC3301 as a control strain of Escherichia coli, the inventors conducted verification experiments of growth and drug sensitivity of Escherichia coli by the test method above.
In this experiment, streptomycin (aminoglycoside) being a concentration-dependent drug was used. 196 μL of a control sample of NBRC3301 was mixed with 4 μL of SM at a concentration of 25 mg/mL to prepare a sample for drug sensitivity evaluation at a SM concentration of 500 μg/mL (SM_500 μg/mL). Further, the amount of the SM to be added to the control sample was adjusted to prepare a sample for drug sensitivity evaluation at a SM concentration of 250 μg/mL (SM_250 μg/mL) and a sample for drug sensitivity evaluation at a SM concentration of 125 μg/mL (SM_125 μg/mL). Furthermore, in order to verify the frequency shift of a killed bacterium, a sample was prepared by subjecting 200 μL of a control sample to heat treatment at 98° C. for 30 minutes. […]
The samples thus prepared were introduced into different containers 60, respectively, and the frequency shift was measured for each sample. […] In analysis processing, frequency shifts of all the 1488 elements on array sensor 10 were measured every 10 seconds, the average value of the measured frequency shifts was calculated every 5 minutes, and extracted as the frequency shift at each timing of the measurement. […]

Structure (SMILES)	increase in the frequency shift with the lapse of time ([1]; 240 minutes, no capping solvent, compared with heat-treated killed bacteria, FIG. 12(a))	time from start of measurement until which the frequency shift increased, decreasing trend thereafter (time-dependent action) ([1]; FIG. 12(a))	frequency shift of each element in display image ([1]; after the lapse of 240 minutes, FIG. 12(c))	growth of BCG reflected on the frequency shift of each element [2]	frequency shift of each element in display image ([3]; SM 500 μg/mL, after the lapse of 60 minutes, FIG. 11(c))	increase in the frequency shift with the lapse of time, compared with control sample ([3]; SM 500, 250 and 125 μg/mL, average of all 1488 elements, 60 minutes, no capping solvent, suppression greater at higher concentration, FIG. 11(a))
CCN1CCN(C(=O)N[C@@H](C(=O)N[C@@H]2C(=O)N3[C@@H]2SC(C)(C)[C@@H]3C(=O)O)c2ccccc2)C(=O)C1=O [PIPC, piperacillin]	the increase in the frequency shift was suppressed more than that in the case where heat treatment was performed	around 120 minutes	the frequency shifts of all the elements were uniformly suppressed low	–	–	–
[H]/N=C(/N)N[C@H]1[C@H](O)[C@@H](O)[C@H](O[C@@H]2O[C@@H](C)[C@](O)(C=O)[C@H]2O[C@@H]2O[C@@H](CO)[C@H](O)[C@@H](O)[C@@H]2NC)[C@@H](N/C(N)=N\[H])[C@@H]1O [SM, streptomycin]	–	–	–	growth of BCG was suppressed	the frequency shifts of all the elements were uniformly suppressed low	the increase in the frequency shift was suppressed
